# In patent publication US5160727A, “Tumor cell sensitization method using quinazolinedione derivatives” (priority 1990, dated 1992):
# Counter-ions that a name gives are not always drawn. Like-named read-outs stand apart in the source and are kept apart here.
# Legend:
# Format in all cases: cell-based, murine
# P388S cells = test: 72-hour growth inhibition of drug-sensitive P388S cells by anticancer drug alone or with modifier (Table I); settings: for effect on adriamycin activity in drug-sensitive parent P388S cells: modifier with adriamycin; for IC50: Mus musculus, P388/S, 72 h, mean of two experiments in triplicate
# Description: (§1) In performing the studies P388 that were sensitive to adriamycin (P388S) and P388 cells that were resistant to adriamycin (P388/ADR) were exposed to various concentrations of anticancer drug either alone or together with 5 μg/mL of modifier or sensitizer for 72 hours.
# (§2) The P388 murine leukemia cells used in obtaining the data set forth in Table I and Table II were obtained from Southern Research Institute (Birmingham, Ala.) and were cultured from ascites fluids of tumor-bearing DMA/2 mice and maintained in Fischer's medium supplemented with 10% horse serum, 10 μM 2-mercaptoethanol, and gentamycin (50 μg/mL). Cells were counted with a Model ZF Coulter Counter (Coulter Electronics, Inc., Hialeah, Fla.). Viability was determined by trypan blue exclusion. The general methodology is described by W. D. Klohs, et al, Cancer Research 46, 4352-4356 (September 1986) and W. D. Klohs, et al, J. Nat'l. Cancer Inst. 75, 353-359 (1985).
# P388/ADR cells = test: 72-hour growth inhibition of adriamycin-resistant P388/ADR cells by anticancer drug alone or with modifier (Table I); settings: Mus musculus
# Description: as §1, §2
# P388R cells [1] = test: Potentiation of adriamycin activity and cell growth in P388 resistant cells (Table II); settings: for activity at 5 µM / activity at 10 µM: Mus musculus, P388, read-out: % of Control Cell Growth; for activity at 5 µM: test compound at 5 μM; for activity at 10 µM: test compound at 10 μM; for Degree of ADR Potentiation in P388R: footnote a (drawing 3)
# Description: as §2, with “The general methodology is described by W. D. Klohs, et al, Cancer Research 46, 4352-4356 (September 1986) and W. D. Klohs, et al, J. Nat'l.” left out, “Inst.” for “Inst. 75, 353-359 (1985).”
# P388R cells [2] = test: Comparative chemosensitization studies in resistant P388R cells; settings: for effect of serum proteins on chemosensitizing activity: MDR cells
# Description: as §1, §2
# MDR P388 cells = test: Intracellular drug levels in MDR P388 cells; settings: mechanism of chemosensitization
# [3] = P388S, anticancer drug alone, modifier none, read-out: ID50 (concentration that inhibits 72-hour cell growth by 50%)
# [4] = P388S, anticancer drug with modifier CsA (cyclosporin A) 5 μg/mL, read-out: ID50 (concentration that inhibits 72-hour cell growth by 50%)
# [5] = P388S, anticancer drug with modifier TIOP (tioperidone) 5 μg/mL, read-out: ID50 (concentration that inhibits 72-hour cell growth by 50%)
# [6] = P388S, anticancer drug with modifier VER (verapamil) 5 μg/mL, read-out: ID50 (concentration that inhibits 72-hour cell growth by 50%)
# [7] = anticancer drug alone, modifier none, mean of two experiments in triplicate, read-out: ID50 (concentration that inhibits 72-hour cell growth by 50%)
# [8] = anticancer drug with modifier CsA (cyclosporin A) 5 μg/mL, mean of two experiments in triplicate, read-out: ID50 (concentration that inhibits 72-hour cell growth by 50%)
# [9] = anticancer drug with modifier TIOP (tioperidone) 5 μg/mL, mean of two experiments in triplicate, read-out: ID50 (concentration that inhibits 72-hour cell growth by 50%)
# [10] = anticancer drug with modifier VER (verapamil) 5 μg/mL, mean of two experiments in triplicate, read-out: ID50 (concentration that inhibits 72-hour cell growth by 50%)
# [11] = test compound at 5 μM with adriamycin
# [12] = test compound at 10 μM with adriamycin
compound,measurement,setting,value
cyclosporin A,effect on adriamycin activity in drug-sensitive parent P388S cells,P388S cells,little effect
"CNCCNc1ccc2c3c(nn2CCNCCO)-c2c(O)ccc(O)c2C(=O)c13 [CI-937, 7,10-dihydroxy-2-[2-[(2-hydroxyethyl)amino]ethyl]-5-[[2-(methylamino)ethyl]amino]anthra[1,9-cd]pyrazol-6(2H)-one dihydrochloride]",IC50,P388S cells; [3],145 nM
same,IC50,P388S cells; [4],135 nM
same,IC50,P388S cells; [5],145 nM
same,IC50,P388S cells; [6],147 nM
same,IC50,P388/ADR cells; [7],5730 nM
same,IC50,P388/ADR cells; [8],151 nM
same,IC50,P388/ADR cells; [9],132 nM
same,IC50,P388/ADR cells; [10],524 nM
"CCCSc1ccccc1N1CCN(CCCCn2c(=O)[nH]c3cc(OC)c(OC)cc3c2=O)CC1 [Example 13, 6,7-dimethoxy-3-[4-[4-[2-(propylthio)phenyl]-1-piperazinyl]butyl]-2,4-(1H,3H)-quinazolinedione]",activity at 5 µM,P388R cells [1],100%
same,activity at 10 µM,P388R cells [1],10.4%
same,Degree of ADR Potentiation in P388R,P388R cells [1]; [11],93.0
same,Degree of ADR Potentiation in P388R,P388R cells [1]; [12],52.2
COc1cccc2c1C(=O)c1c(O)c3c(c(O)c1C2=O)C[C@@](O)(C(=O)CO)C[C@@H]3O[C@H]1C[C@H](N)[C@H](O)[C@H](C)O1 [Adriamycin],IC50,P388S cells; [3],156 nM
same,IC50,P388S cells; [4],147 nM
same,IC50,P388S cells; [5],152 nM
same,IC50,P388S cells; [6],152 nM
same,IC50,P388/ADR cells; [7],7820 nM
same,IC50,P388/ADR cells; [8],195 nM
same,IC50,P388/ADR cells; [9],174 nM
same,IC50,P388/ADR cells; [10],710 nM
COc1cccc2c1C(=O)c1c(O)c3c(c(O)c1C2=O)C[C@@](O)(C(C)=O)C[C@@H]3O[C@H]1C[C@H](N)[C@H](O)[C@H](C)O1 [Daunomycin],IC50,P388S cells; [3],98 nM
same,IC50,P388S cells; [4],95 nM
same,IC50,P388S cells; [5],96 nM
same,IC50,P388S cells; [6],93 nM
same,IC50,P388/ADR cells; [7],2770 nM
same,IC50,P388/ADR cells; [8],108 nM
same,IC50,P388/ADR cells; [9],103 nM
same,IC50,P388/ADR cells; [10],329 nM
"CCCSc1ccccc1N1CCN(CCCCn2c(=O)c3ccccc3n(C)c2=O)CC1 [Example 12, 1-methyl-3-[4-[4-[2-(propylthio)phenyl]-1-piperazinyl]butyl] -2,4-(1H,3H)quinazolinedione]",activity at 5 µM,P388R cells [1],100%
same,activity at 10 µM,P388R cells [1],87%
same,Degree of ADR Potentiation in P388R,P388R cells [1]; [11],17.9
same,Degree of ADR Potentiation in P388R,P388R cells [1]; [12],39.1
"CCCSc1ccccc1N1CCN(CCCCCn2c(=O)[nH]c3cc(OC)c(OC)cc3c2=O)CC1 [Example 14, 6,7-dimethoxy-3-[5-[4-[2-(propylthio)phenyl]-1-piperazinyl]pentyl]-2,4(1H,3H)-quinazolinedione]",activity at 5 µM,P388R cells [1],53%
same,activity at 10 µM,P388R cells [1],1.2%
same,Degree of ADR Potentiation in P388R,P388R cells [1]; [11],65.0
"CCCCc1oc2ccccc2c1C(=O)c1cc(I)c(OCCN(CC)CC)c(I)c1 [amiodarone, reference compound]",effect of serum proteins on chemosensitizing activity,P388R cells [2],diminished by binding to serum proteins
COc1cc(NCc2ccc3nc(N)nc(N)c3c2C)cc(OC)c1OC [Trimetrexate],IC50,P388S cells; [3],12 nM
same,IC50,P388S cells; [4],11 nM
same,IC50,P388S cells; [5],12 nM
same,IC50,P388S cells; [6],12 nM
same,IC50,P388/ADR cells; [7],270 nM
same,IC50,P388/ADR cells; [8],12 nM
same,IC50,P388/ADR cells; [9],14 nM
same,IC50,P388/ADR cells; [10],29 nM
"CCCSc1ccccc1N1CCN(CCCCn2c(=O)[nH]c3ccccc3c2=O)CC1 [Example 1, 3-[4-[4-[2-(propylthio)phenyl]-1-piperazinyl]butyl-2,4-(1H,3H)-quinazolinedione (tioperidone)monohydrochloride]",effect on intracellular drug levels in MDR P388 cells,MDR P388 cells,increasing the intracellular drug levels
same,effect on adriamycin activity in drug-sensitive parent P388S cells,P388S cells,little effect
same,effect of serum proteins on chemosensitizing activity,P388R cells [2],does not appear to be altered by serum proteins
same,potentiating the activity of adriamycin in P388R cells,"P388R cells [2]; compared with verapamil, amiodarone and cyclosporin A",superior to all of the other agents
same,"sensitization of P388R cells to vincristine, trimetrexate, and CI-937","P388R cells [2]; modifier with vincristine, trimetrexate or CI-937",fully sensitized
same,activity at 5 µM,P388R cells [1],100%
same,activity at 10 µM,P388R cells [1],98%
same,Degree of ADR Potentiation in P388R,P388R cells [1]; [11],20.8
same,Degree of ADR Potentiation in P388R,P388R cells [1]; [12],44.7
"CCCSc1ccccc1N1CCN(CCCCCCn2c(=O)[nH]c3ccccc3c2=O)CC1 [Example 11, 3-[6-[4-[2-(propylthio)phenyl]-1-piperazinyl]hexyl]-2,4-(1H,3H)quinazolinedione monohydrochloride, 1/3 hydrate]",activity at 5 µM,P388R cells [1],99%
same,activity at 10 µM,P388R cells [1],66%
same,Degree of ADR Potentiation in P388R,P388R cells [1]; [11],73.8
same,Degree of ADR Potentiation in P388R,P388R cells [1]; [12],52.2
"CCCSc1ccccc1N1CCN(CCCCn2c(=O)c3cccc(OC)c3n(C)c2=O)CC1.Cl [Example 18, 8-methoxy-1-methyl-3-[4-[4-[2-(propylthio)phenyl]-1-piperazinyl]butyl]-2,4-(1H,3H)quinazolinedione monohydrochloride]",activity at 5 µM,P388R cells [1],100%
same,activity at 10 µM,P388R cells [1],87%
same,Degree of ADR Potentiation in P388R,P388R cells [1]; [11],21.1
same,Degree of ADR Potentiation in P388R,P388R cells [1]; [12],24.6
COc1cc([C@@H]2c3cc4c(cc3[C@@H](O[C@@H]3O[C@@H]5CO[C@@H](C)O[C@H]5[C@H](O)[C@H]3O)[C@H]3COC(=O)[C@H]23)OCO4)cc(OC)c1O [Etoposide],IC50,"P388S cells; read-out: ID50 (concentration that inhibits 72-hour cell growth by 50%), P388S, anticancer drug alone, modifier none",24.1 nM
same,IC50,"P388S cells; read-out: ID50 (concentration that inhibits 72-hour cell growth by 50%), P388S, anticancer drug with modifier CsA (cyclosporin A) 5 μg/mL",19.8 nM
same,IC50,"P388S cells; read-out: ID50 (concentration that inhibits 72-hour cell growth by 50%), P388S, anticancer drug with modifier TIOP (tioperidone) 5 μg/mL",21.2 nM
same,IC50,"P388S cells; read-out: ID50 (concentration that inhibits 72-hour cell growth by 50%), P388S, anticancer drug with modifier VER (verapamil) 5 μg/mL",20.1 nM
same,IC50,"P388/ADR cells; read-out: ID50 (concentration that inhibits 72-hour cell growth by 50%), P388/ADR, anticancer drug alone, modifier none, mean of two experiments in triplicate",5100 nM
same,IC50,"P388/ADR cells; read-out: ID50 (concentration that inhibits 72-hour cell growth by 50%), P388/ADR, anticancer drug with modifier CsA (cyclosporin A) 5 μg/mL, mean of two experiments in triplicate",252 nM
same,IC50,"P388/ADR cells; read-out: ID50 (concentration that inhibits 72-hour cell growth by 50%), P388/ADR, anticancer drug with modifier TIOP (tioperidone) 5 μg/mL, mean of two experiments in triplicate",433 nM
same,IC50,"P388/ADR cells; read-out: ID50 (concentration that inhibits 72-hour cell growth by 50%), P388/ADR, anticancer drug with modifier VER (verapamil) 5 μg/mL, mean of two experiments in triplicate",872 nM
CC[C@]1(O)C[C@H]2CN(CCc3c([nH]c4ccccc34)[C@@](C(=O)OC)(c3cc4c(cc3OC)N(C=O)[C@H]3[C@@](O)(C(=O)OC)[C@H](OC(C)=O)[C@]5(CC)C=CCN6CC[C@]43[C@@H]65)C2)C1 [Vincristine],IC50,P388S cells; [3],21 nM
same,IC50,P388S cells; [4],21 nM
same,IC50,P388S cells; [5],20 nM
same,IC50,P388S cells; [6],21 nM
same,IC50,P388/ADR cells; [7],554 nM
same,IC50,P388/ADR cells; [8],27 nM
same,IC50,P388/ADR cells; [9],22 nM
same,IC50,P388/ADR cells; [10],30 nM
"CSc1ccccc1N1CCN(CCCCn2c(=O)[nH]c3ccccc3c2=O)CC1 [Example 7, 3-[4-[4-[2-methylthio)phenyl]-1-piperazinyl]butyl]-2,4(1H,3H)quinazolinedione monohydrochloride]",activity at 5 µM,P388R cells [1],95%
same,activity at 10 µM,P388R cells [1],72%
same,Degree of ADR Potentiation in P388R,P388R cells [1]; [11],25.2
same,Degree of ADR Potentiation in P388R,P388R cells [1]; [12],48.4
"CCCSc1ccccc1N1CCN(CCCn2c(=O)[nH]c3ccccc3c2=O)CC1.Cl [Example 2, 3-[3-[4-[2-(propylthio)phenyl]-1-piperazinyl]propyl]-2,4-(1H,3H)-quinazolinedione monohydrochloride]",activity at 5 µM,P388R cells [1],89%
same,activity at 10 µM,P388R cells [1],87%
same,Degree of ADR Potentiation in P388R,P388R cells [1]; [11],13.1
same,Degree of ADR Potentiation in P388R,P388R cells [1]; [12],22.0
"CCCSc1ccccc1N1CCN(CCCCn2c(=O)[nH]c3ccc(C)cc3c2=O)CC1.Cl [Example 10, 6-methyl-3-[4-[4[2(propylthio)phenyl]-1-piperazinyl]butyl]-2,4(1H,3H)-quinazolinedione monohydrochloride]",activity at 5 µM,P388R cells [1],92%
same,activity at 10 µM,P388R cells [1],85%
same,Degree of ADR Potentiation in P388R,P388R cells [1]; [11],21.0
same,Degree of ADR Potentiation in P388R,P388R cells [1]; [12],48.4
